Reference: ChEMBL document CHEMBL5512641, “Evaluation of novel 2-(quinoline-2-ylthio)acetamide derivatives linked to diphenyl-imidazole as α-glucosidase inhibitors: Insights from in silico, in vitro, and in vivo studies on their anti-diabetic properties” (Eur J Med Chem, 2024)
Each block holds one molecule with its values, some of them ahead of it. Calls of active or inactive are those of the source. No cut-off for these calls is given here.

Legend:
Alpha-glucosidase [1] = biological target: T1, Alpha-glucosidase (Saccharomyces cerevisiae S288c, UniProt P53341+P38158+P07265); assay: Inhibition of Saccharomyces cerevisiae alpha-glucosidase using p-nitrophenyl-alpha-D-glucopyranoside as substrate preincubated for 10 mins followed by substrate addition and measured after 20 mins by spectrophotometer; assay type: protein assay
Alpha-glucosidase [2] = biological target: T1, Alpha-glucosidase; assay: Inhibition of Saccharomyces cerevisiae alpha-glucosidase using p-nitrophenyl-alpha-D-glucopyranoside as substrate measured after 20 mins by spectrophotometer; assay type: protein assay
[3] = biological target: Alpha-glucosidase (Saccharomyces cerevisiae S288c) (UniProt P53341+P38158+P07265); assay: Potency index, ratio of acarbose IC50 to test compound IC50 for inhibition of Saccharomyces cerevisiae alpha-glucosidase using p-nitrophenyl-alpha-D-glucopyranoside as substrate measured after 20 mins by spectrophotometer; assay type: protein assay
Alpha-glucosidase [4] = biological target: T1, Alpha-glucosidase; assay: Competitive inhibition of Saccharomyces cerevisiae alpha-glucosidase using varying concentrations of p-nitrophenyl-alpha-D-glucopyranoside as substrate by Lineweaver-Burk plot analysis; assay type: protein assay
Alpha-glucosidase [5] = biological target: T1, Alpha-glucosidase; assay: Uncompetitive inhibition of Saccharomyces cerevisiae alpha-glucosidase using varying concentrations of p-nitrophenyl-alpha-D-glucopyranoside as substrate by Lineweaver-Burk plot analysis; assay type: protein assay
Rattus norvegicus [6] = assay: Antidiabetic activity in high fat diet/streptozotocin induced diabetic rat Wistar albino model assessed as reduction in blood glucose level at 50 mg/kg, po administered once daily and measured on day 14 using overnight fasted rat blood by automatic blood glucose meter; assay type: functional, organism-based; details: time 14.0 day
Rattus norvegicus [7] = assay: Antidiabetic activity in high fat diet/streptozotocin induced diabetic Wistar albino rat model assessed as reduction in blood glucose level at 50 mg/kg, po administered once daily and measured on day 28 using overnight fasted rat blood by automatic blood glucose meter; assay type: functional; details: time 28 day
Rattus norvegicus [8] = assay: Antidiabetic activity in 16 hrs fasted high fat diet/streptozotocin induced diabetic Wistar albino rat model assessed as reduction in blood glucose level at 50 mg/kg, po pretreated for 30 mins followed by glucose administration and measured after 30 to 120 mins by oral glucose tolerance test; assay type: functional, organism-based; details: time […]
Rattus norvegicus [9] = assay: Antidiabetic activity in high fat diet/streptozotocin induced diabetic Wistar albino rat model assessed as increase in body weight at 50 mg/kg, po administered once daily and measured for 28 days; assay type: functional, organism-based; details: time 28.0 day
[10] = Acute toxicity in male Wistar albino rat assessed as salivation at 250 to 1000 mg/kg, po administered via gastric gavage and measured daily for 2 weeks; assay type: organism-based; details: in vivo, 336 h, dose 250-1000 mg/kg
Rattus norvegicus [11] = assay: Antidiabetic activity in 16 hrs fasted high fat diet/streptozotocin induced diabetic Wistar albino rat model assessed as reduction in blood glucose level at 25 to 50 mg/kg, po pretreated for 30 mins followed by glucose administration and measured after 30 mins by oral glucose tolerance test; assay type: functional, organism-based; details: dose 25-50 mg/kg, time 60.0 min
Rattus norvegicus [12] = assay: Antidiabetic activity in high fat diet/streptozotocin induced diabetic Wistar albino rat model assessed as reduction in blood glucose level at 10 to 50 mg/kg, po administered once daily and measured immediately by automatic blood glucose meter; assay type: functional, organism-based; details: dose 10-50 mg/kg
Rattus norvegicus [13] = assay: Antidiabetic activity in high fat diet/streptozotocin induced diabetic Wistar albino rat model assessed as reduction in blood glucose level at 10 to 50 mg/kg, po administered once daily and measured on day 7 using overnight fasted rat blood by automatic blood glucose meter; assay type: functional, organism-based; details: dose 10-50 mg/kg, time 7.0 day
[14] = Acute toxicity in male Wistar albino rat assessed as symptoms of toxicity at 250 to 1000 mg/kg, po administered via gastric gavage and measured daily for 72 hrs; assay type: organism-based; details: in vivo, dose 250-1000 mg/kg
Rattus norvegicus [15] = assay: Antidiabetic activity in high fat diet/streptozotocin induced diabetic Wistar albino rat model assessed as increase in body weight at 10 to 50 mg/kg, po administered once daily and measured for 28 days; assay type: functional, organism-based; details: dose 10-50 mg/kg, time 28.0 day
Rattus norvegicus [16] = assay: Antidiabetic activity in high fat diet/streptozotocin induced diabetic Wistar albino rat model assessed as reduction in blood glucose level at 25 to 50 mg/kg, po administered once daily and measured on day 14 using overnight fasted rat blood by automatic blood glucose meter; assay type: functional, organism-based; details: dose 25-50 mg/kg, time 14.0 day
[17] = Acute toxicity in male Wistar albino rat assessed as lethargy at 250 to 1000 mg/kg, po administered via gastric gavage and measured daily for 2 weeks; assay type: organism-based; details: in vivo, 336 h, dose 250-1000 mg/kg
[18] = Acute toxicity in male Wistar albino rat assessed as animal death at 250 to 1000 mg/kg, po administered via gastric gavage and measured daily for 72 hrs to 2 weeks; assay type: organism-based; details: in vivo, dose lower 250 mg/kg, time lower 3 day, dose upper 1000 mg/kg, time upper 14 day
Rattus norvegicus [19] = assay: Antidiabetic activity in 16 hrs fasted high fat diet/streptozotocin induced diabetic Wistar albino rat model assessed as reduction in blood glucose level at 10 to 50 mg/kg, po pretreated for 30 mins followed by glucose administration and measured immediately by oral glucose tolerance test; assay type: functional, organism-based; details: dose 10-50 mg/kg
Rattus norvegicus [20] = assay: Antidiabetic activity in high fat diet/streptozotocin induced diabetic Wistar albino rat model assessed as reduction in blood glucose level at 20 mg/kg, po administered once daily and measured on day 28 using overnight fasted rat blood by automatic blood glucose meter; assay type: functional; details: time 28 day
[21] = Acute toxicity in male Wistar albino rat assessed as tremors at 250 to 1000 mg/kg, po administered via gastric gavage and measured daily for 2 weeks; assay type: organism-based; details: in vivo, 336 h, dose 250-1000 mg/kg
[22] = Acute toxicity in male Wistar albino rat assessed as effect on sleeping at 250 to 1000 mg/kg, po administered via gastric gavage and measured daily for 2 weeks; assay type: organism-based; details: in vivo, 336 h, dose 250-1000 mg/kg
Rattus norvegicus [23] = assay: Antidiabetic activity in 16 hrs fasted high fat diet/streptozotocin induced diabetic Wistar albino rat model assessed as reduction in blood glucose level at 10 to 50 mg/kg, po pretreated for 30 mins followed by glucose administration and measured after 60 to 120 mins by oral glucose tolerance test; assay type: functional, organism-based; details: dose 10-50 mg/kg, time 30-150 min
Rattus norvegicus [24] = assay: Antidiabetic activity in high fat diet/streptozotocin induced diabetic Wistar albino rat model assessed as reduction in blood glucose level at 10 mg/kg, po administered once daily and measured on day 28 using overnight fasted rat blood by automatic blood glucose meter; assay type: functional; details: time 28 day
[25] = Acute toxicity in male Wistar albino rat assessed as symptoms of diarrhea at 250 to 1000 mg/kg, po administered via gastric gavage and measured daily for 2 weeks; assay type: organism-based; details: in vivo, 336 h, dose 250-1000 mg/kg
Rattus norvegicus [26] = assay: Antidiabetic activity in high fat diet/streptozotocin induced diabetic Wistar albino rat model assessed as reduction in blood glucose level at 50 mg/kg, po administered once daily and measured on day 21 using overnight fasted rat blood by automatic blood glucose meter; assay type: functional, organism-based; details: time 21.0 day
Rattus norvegicus [27] = assay: Antidiabetic activity in high fat diet/streptozotocin induced diabetic Wistar albino rat model assessed as improvement in pancreatic islet architecture at 10 to 50 mg/kg, po administered once daily for 28 days by H and E staining based microscopic analysis; assay type: functional, organism-based; details: dose 10-50 mg/kg, time 28.0 day
[28] = Acute toxicity in male Wistar albino rat assessed as convulsions at 250 to 1000 mg/kg, po administered via gastric gavage and measured daily for 2 weeks; assay type: organism-based; details: in vivo, 336 h, dose 250-1000 mg/kg

IC50 (Alpha-glucosidase [1]): 85600 nM
SMILES: Clc1ccccc1Cn1cc(CSc2nc(-c3ccccc3)c(-c3ccccc3)[nH]2)nn1

IC50 (Alpha-glucosidase [2]): 2050 nM
SMILES: Cc1cccc(NC(=O)CSc2nc3ccccc3cc2-c2nc(-c3ccccc3)c(-c3ccccc3)[nH]2)c1C

IC50 (Alpha-glucosidase [2]): 1770 nM
SMILES: Cc1ccc(NC(=O)CSc2nc3ccccc3cc2-c2nc(-c3ccccc3)c(-c3ccccc3)[nH]2)cc1

IC50 (Alpha-glucosidase [2]): 1530 nM
SMILES: Cc1cc([N+](=O)[O-])ccc1NC(=O)CSc1nc2ccccc2cc1-c1nc(-c2ccccc2)c(-c2ccccc2)[nH]1

IC50 (Alpha-glucosidase [2]): 1480 nM
SMILES: Cc1ccc(CNC(=O)CSc2nc3ccccc3cc2-c2nc(-c3ccccc3)c(-c3ccccc3)[nH]2)cc1

Ratio IC50 [3]: 375
IC50 (Alpha-glucosidase [2]): 2100 nM
SMILES: O=C(CSc1nc2ccccc2cc1-c1nc(-c2ccccc2)c(-c2ccccc2)[nH]1)Nc1ccccc1

Ki (Alpha-glucosidase [4]): 1400 nM
IC50 (Alpha-glucosidase [2]): 1260 nM
SMILES: O=C(CSc1nc2ccccc2cc1-c1nc(-c2ccccc2)c(-c2ccccc2)[nH]1)NCc1ccc(F)cc1

IC50 (Alpha-glucosidase [2]): 2020 nM
SMILES: O=C(CSc1nc2ccccc2cc1-c1nc(-c2ccccc2)c(-c2ccccc2)[nH]1)Nc1ccccc1F

IC50 (Alpha-glucosidase [2]): 1580 nM
SMILES: O=C(CSc1nc2ccccc2cc1-c1nc(-c2ccccc2)c(-c2ccccc2)[nH]1)Nc1cccc(Cl)c1Cl

IC50 (Alpha-glucosidase [2]): 1850 nM
SMILES: O=C(CSc1nc2ccccc2cc1-c1nc(-c2ccccc2)c(-c2ccccc2)[nH]1)Nc1cccc(Cl)c1

IC50 (Alpha-glucosidase [2]): 1020 nM
Ki (Alpha-glucosidase [5]): 990 nM
SMILES: Cc1c(NC(=O)CSc2nc3ccccc3cc2-c2nc(-c3ccccc3)c(-c3ccccc3)[nH]2)cccc1[N+](=O)[O-]

IC50 (Alpha-glucosidase [2]): 1790 nM
SMILES: O=C(CSc1nc2ccccc2cc1-c1nc(-c2ccccc2)c(-c2ccccc2)[nH]1)NCc1ccccc1

IC50 (Alpha-glucosidase [1]): 14000 nM
SMILES: Cc1cccc(C)c1NC(=O)CSc1nc2ccccc2cc1/C=N/NC(=O)c1ccccc1

IC50 (Alpha-glucosidase [2]): 1800 nM
SMILES: O=C(CSc1nc2ccccc2cc1-c1nc(-c2ccccc2)c(-c2ccccc2)[nH]1)Nc1ccc(Cl)cc1

SMILES: C[C@H]1O[C@H](O[C@H]2[C@H](O)[C@@H](O)[C@@H](O[C@H]3[C@H](O)[C@@H](O)C(O)O[C@@H]3CO)O[C@@H]2CO)[C@H](O)[C@@H](O)[C@@H]1N[C@H]1C=C(CO)[C@@H](O)[C@H](O)[C@H]1O (stereo partly drawn) [ACARBOSE]
Activity (Rattus norvegicus [6]): Active
Activity (Rattus norvegicus [7]): 115 mg/dL
Activity (Rattus norvegicus [8]): Active
Activity (Rattus norvegicus [9]): Active

SMILES: O=C(CSc1nc2ccccc2cc1-c1nc(-c2ccccc2)c(-c2ccccc2)[nH]1)Nc1ccc(F)cc1
Ki (Alpha-glucosidase [4]): 150 nM
Activity [10]: Non-Toxic
Activity (Rattus norvegicus [11]): Active
Activity (Rattus norvegicus [12]): inactive
Activity (Rattus norvegicus [13]): inactive
Activity [14]: Non-Toxic
Activity (Rattus norvegicus [15]): Active
Activity (Rattus norvegicus [16]): Active
Activity [17]: Non-Toxic
Activity [18]: Non-Toxic
Activity (Rattus norvegicus [19]): inactive
Activity (Rattus norvegicus [20]): 207.83 mg/dL
Activity [21]: Non-Toxic
Activity (Rattus norvegicus [7]): 127.83 mg/dL
Activity [22]: Non-Toxic
Activity (Rattus norvegicus [23]): Active
Activity (Rattus norvegicus [24]): 242 mg/dL
Activity [25]: Non-Toxic
IC50 (Alpha-glucosidase [2]): 180 nM
Activity (Rattus norvegicus [26]): Active
Activity (Rattus norvegicus [27]): Active
Activity [28]: Non-Toxic

IC50 (Alpha-glucosidase [2]): 1250 nM
Ki (Alpha-glucosidase [5]): 1000 nM
SMILES: Cc1cccc(C)c1NC(=O)CSc1nc2ccccc2cc1-c1nc(-c2ccccc2)c(-c2ccccc2)[nH]1

IC50 (Alpha-glucosidase [2]): 1980 nM
SMILES: O=C(CSc1nc2ccccc2cc1-c1nc(-c2ccccc2)c(-c2ccccc2)[nH]1)Nc1ccc(Br)cc1

IC50 (Alpha-glucosidase [2]): 1950 nM
SMILES: O=C(CSc1nc2ccccc2cc1-c1nc(-c2ccccc2)c(-c2ccccc2)[nH]1)Nc1ccccc1Cl

IC50 (Alpha-glucosidase [2]): 1500 nM
SMILES: Cc1ccccc1NC(=O)CSc1nc2ccccc2cc1-c1nc(-c2ccccc2)c(-c2ccccc2)[nH]1

IC50 (Alpha-glucosidase [1]): 80000 nM
SMILES: COc1ccc2nc3cc(Cl)ccc3c(SCC(=O)Nc3ccc(C)cc3)c2c1

Ki (Alpha-glucosidase [4]): 2200 nM
IC50 (Alpha-glucosidase [2]): 1220 nM
SMILES: O=C(CSc1nc2ccccc2cc1-c1nc(-c2ccccc2)c(-c2ccccc2)[nH]1)Nc1ccc2ccccc2c1

IC50 (Alpha-glucosidase [2]): 960 nM
Ki (Alpha-glucosidase [5]): 770 nM
SMILES: CCc1ccc(NC(=O)CSc2nc3ccccc3cc2-c2nc(-c3ccccc3)c(-c3ccccc3)[nH]2)cc1
